Literature values, collected in patent publication US9408814B2, “Modified release dosage form comprising desvenlafaxine or salts thereof” (WOCKHARDT LIMITED, priority 2010, dated 2016).
Read-outs that look alike come from different tables or passages of the source.

How the values were obtained:
[1] = at pH 7.0
[2] = not given; remark: listed apart in the source

| octanol:aqueous system partition coefficient [1] | pKa (dimethylamino group) | pKa (phenolic group) | pH dependence of solubility ([2]; solubility increases at lower pH) | solubility in water ([2]; water) | solubility at gastric pH ([2]; gastric pH) | solubility at intestinal pH ([2]; intestinal pH) | SMILES |
| --- | --- | --- | --- | --- | --- | --- | --- |
| 0.21 | 8.34 | 10.11 | pH dependent | soluble in water | – | – | CN(C)CC(c1ccc(O)cc1)C1(O)CCCCC1 (stereo not shown) [Desvenlafaxine succinate] |
| – | – | – | – | – | relatively good solubility | poor solubility | CN(C)CC(c1ccc(O)cc1)C1(O)CCCCC1.O=C(O)CCC(=O)O (stereo not shown) [Desvenlafaxine, RS-4-[2-dimethylamino-1-(1-hydroxycyclohexyl)ethyl]phenol] |
